Reference: US9994862B2, “Rice resistant to HPPD and ACCase inhibiting herbicides” (priority 2011, dated 2018)
Entries after “also recorded” stand apart in the source; their conditions may differ.

Tests used:
[1] = test system: common grass weeds, such as barnyard grass; assay: Grass weed control by ACCase herbicides in rice; format: in vivo; details: for control of common grass weeds in rice: in vivo
From the text: (§1) FIG. 5 illustrates grass weed control by the ACCase inhibitor quizalofop; control is shown by the prevalent grass weed (dead plants) being killed by quizalofop (77 gm ai/ha) while the resistant line ML0831265-01493 (live plants) were not injured.
Rice is tolerant to certain ACCase inhibitor herbicides, for example cyhalofop is registered for use in rice. However other ACCase herbicides kill or severely injure rice to varying degrees. […] The applied rates of both types of herbicides giving the weed control are well within the tolerance level of the respective ACCase and HPPD tolerant lines including the combined lines carrying tolerance to both HPPD and ACCase herbicides.

[2] = test system: line PL1214418M2-80048; assay: Herbicide tolerance of the combined HPPD and ACCase line; parameters: species or system rice; details: in vivo
From the text: An early maturing group of plants was harvested as early as possible and the seeds planted in the greenhouse to help quickly advance to the F4 generation. Selections on the F3 plants were made by molecular markers flanking the HPPD tolerance mutation and native tolerance the ACCase functional mutation. Homozygous plants for all the selected genomic regions were advanced to the F5 generation. The F5 seed was confirmed to carry tolerance to ACCase herbicides and the HPPD herbicide mesotrione. Among the F5 lines PL1214418M2-80048 was selected due to a high seed yield and being homozygous for the ACCase tolerance mutation at position G2096S, the HPPD tolerance mutation, and the HPPD tolerance native gene. Seed from the line PL1214418M2-80048 was deposited at the ATCC and given a deposit number PTA-121362 (see Table 8).
Individuals with tolerance to both mesotrione and ACCase herbicides were selfed to produce F3 families and further selected for other important agronomic characters. The F3 lines were selfed and purified to derive a new line or variety with dual resistance to mesotrione and ACCase herbicides. Such lines are highly valuable as the use of both herbicides provides more complete and broad-spectrum weed control. […]

[3] = test system: line PL1214418M2-73009; assay: ACCase herbicide field trial; format: in vivo, rice; details: for tolerance to ACCase herbicide compared with donor line ML0831265-01493: 0.5x to 4x of label rate (fluazifop 210 gmai/ha, quizalofop 77 gmai/ha)
Description: FIG. 2 is a graphical representation of a trait tolerance trial; the trial rice were planted, quizalofop was applied at the indicated rates about 5 weeks later (initiating tillering); the rice was evaluated for the percent of injury or damage as compared to unsprayed rice four weeks after herbicide application; line ML0831265-01493 is the ACCase resistant line and R0146 and P1003 are control lines; the line PL1214418M2-73009 was selected out of a cross between the HPPD tolerant line ML0831266-03093 (parent is P1003) and the ACCase tolerant line ML0831265-01493 (parent is R0146).
(§2) Another trial was conducted to confirm recovery of the ACCase inhibitor resistance from the G2096S mutation as in the line ML0831265-01493. In this trial the new line PL1214418-73009 with combined HPPD and ACCase tolerance was planted in a row along with other various lines including the original donor line ML0831265-01493 (planted in a plot), ML0831266-03093, P1003, R0146 parent line for ACCase tolerance. The lines were all tested with the ACCase herbicides fluazifop at 0.5×, 1×, 2×, and 4× multiples of the label application rate (210 gmai/ha) and quizalofop at 0.5×, 1×, 2×, and 4× multiples of the label application rate (77 gmai/ha).

[4] = test system: line P1003; assay: ACCase herbicide field trial; format: in vivo, rice; details: four weeks after application
Description: (§3) FIG. 3A-3B is a photograph of line ML0831266-03093 that in addition to resistance to HPPD herbicides also has enhanced resistance to ACCase herbicides. […] Picture taken four weeks after herbicide application.
(§4) During the process of showing equivalent resistance of the ACCase tolerance in the new line PL1214418M2-73009, the HPPD tolerant line ML0831266-03093 was also evaluated for response to ACCase tolerance by application of the ACCase herbicides fluazifop at 0.5×, 1×, 2×, and 4× multiples of the label application rate (210 gmai/ha) and quizalofop at 0.5×, 1×, 2×, and 4× multiples of the label application rate (77 gmai/ha). In the field trials the resistant HPPD line ML0831266-03093 was planted in a row adjacent to the parent line P1003. […] By combining the HPPD tolerance with the ACCase tolerance the newly developed line PL1214418M2-73009, or any other new line and other derived lines because resistance is heritable and can be bred into lines e.g. progeny may carry a higher tolerance to ACCase inhibiting herbicides than lines developed from only the ACCase inhibitor resistant line ML0831265-01493.

[5] = test system: HPPD tolerant line ML0831266-03093; assay: ACCase herbicide field trial; format: in vivo, rice; details: for resistance to ACCase inhibiting herbicides compared with line P1003: 0.5x to 4x of label rate (fluazifop 210 gmai/ha, quizalofop 77 gmai/ha)
Description: as §3, §4

[6] = test system: line ML0831265-02283; assay: ACCase herbicide field trial; format: in vivo, rice
From the text: After screening a large mutant population, the line ML0831265-02283 also survived application of the ACCase herbicide quizalofop. The line was increased to obtain sufficient seed for larger trials to evaluate its tolerance to ACCase herbicides. The tolerance to ACCase herbicides in line ML0831265-02283 was validated by planting in the field plots (5 feet by 10 feet) of the line, the non-mutant parent line R0146, a second non-mutant line P1003, and the ACCase tolerant line ML0831265-01493. The ACCase herbicide quizalofop was applied at the four leaf stage at 0.5×, 1×, 2×, and 4× multiples of the labeled rate (77 gmai/ha). Twenty one days after the herbicide was applied the plots were evaluated for percent injury caused to the rice based on control plots that had no herbicide application (FIG. 8). The data confirms the tolerance of line ML0831265-02283 and it may even carry more tolerance than line ML0831265-01493 as shown by less injury at the 2× and 4× rates of quizalofop.

[7] = test system: ACCase resistant line ML0831265-01493; assay: ACCase herbicide field trial; format: in vivo, rice; details: quizalofop 77 gm ai/ha
Description: as §1, §2
After screening a large mutant population, the line ML0831265-02283 also survived application of the ACCase herbicide quizalofop. The line was increased to obtain sufficient seed for larger trials to evaluate its tolerance to ACCase herbicides. […] Twenty one days after the herbicide was applied the plots were evaluated for percent injury caused to the rice based on control plots that had no herbicide application (FIG. 8). […]

| SMILES | control of common grass weeds in rice [1] | tolerance to the herbicide [2] | tolerance to ACCase herbicide compared with donor line ML0831265-01493 [3] | tolerance to fluazifop ([3]; in vivo) | killing of rice plants ([4]; fluazifop alone 210 gmai/ha at initiation of tillering) | resistance to ACCase inhibiting herbicides compared with line P1003 [5] | injury compared with line ML0831265-01493 ([6]; 2x and 4x of the labeled rate 77 gmai/ha, four leaf stage, 21 days after application) | survival in the screening of the mutant population ([6]; in vivo) | injury of the rice [7] | grass weed control ([1]; quizalofop 77 gm ai/ha, prevalent grass weed) | survival after quizalofop ([4]; 77 gm ai/ha) | survival after quizalofop ([5]; 77 gm ai/ha, four weeks after application) |
| --- | --- | --- | --- | --- | --- | --- | --- | --- | --- | --- | --- | --- |
| CC(Oc1ccc(Oc2ccc(C(F)(F)F)cn2)cc1)C(=O)O (stereo not drawn) [fluazifop] | good control | tolerance | equivalent tolerance | tolerance | no killing of the rice plants was observed | more resistance |  |  |  |  |  |  |
| CC(Oc1ccc(Oc2cnc3cc(Cl)ccc3n2)cc1)C(=O)O (stereo not drawn) [quizalofop] | good control |  | equivalent or better; also recorded: equivalent tolerance |  |  | more resistance | less injury | survived | not injured | killed | does not survive | surviving |
